Results from US5795907A, “Gastin and CCK receptor ligands” (James Black Foundation Limited, priority 1994, dated 1998).

Columns and labels:
CCKB receptor = biological target: T1, CCKB receptor (Mus musculus, UniProt P56481); experiment: CCKB receptor radioligand binding assay in mouse cortical membranes ([125I]-CCK8S); settings: [125I]-CCK8S 200 pM, 150 min at 21±3°; for Ki: read-out: CCKB pKi (converted)
T1 construct: The cortex was dissected, weighed and homogenised in 40ml ice-cold buffer; tissue Charles River (supplier of the CD1 mice); host or cells: cerebral cortex membranes of male CD1 mice
T1 sequence (P56481 1-453): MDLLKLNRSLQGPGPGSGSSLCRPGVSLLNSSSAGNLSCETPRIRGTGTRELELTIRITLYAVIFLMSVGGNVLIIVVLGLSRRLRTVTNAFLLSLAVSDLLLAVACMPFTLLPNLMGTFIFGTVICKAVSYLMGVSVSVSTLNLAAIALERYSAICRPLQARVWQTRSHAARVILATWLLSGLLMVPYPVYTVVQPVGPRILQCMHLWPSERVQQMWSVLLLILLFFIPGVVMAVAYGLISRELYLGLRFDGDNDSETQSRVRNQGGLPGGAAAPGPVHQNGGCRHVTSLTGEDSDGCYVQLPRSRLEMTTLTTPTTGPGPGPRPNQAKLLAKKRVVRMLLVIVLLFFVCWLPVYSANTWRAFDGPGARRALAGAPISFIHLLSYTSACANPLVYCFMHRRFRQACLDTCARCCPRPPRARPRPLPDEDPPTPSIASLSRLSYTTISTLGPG
Protocol: The compounds of the examples were tested for binding at the CCKB receptor in mouse cortical membranes by means of a radioligand binding assay. The procedure was as follows:
The whole brains from male mice (CD1 22-25 g; Charles River) were removed and placed in ice-cold buffer (pH7.2 @ 21±3°) of the following composition (mM); 10 HEPES, 130 NaCl, 4.7 KCl, 5 MgCl2, 1 EDTA and containing 0.25g.^-1 bacitracin. The cortex was dissected, weighed and homogenised in 40ml ice-cold buffer using a Teflon-in-glass homogeniser. The homogenate was centrifuged at 39,800g for 20 min at 4°, the supernatant discarded and the pellet resuspended by homogenisation in fresh buffer. The homogenate was recentrifuged (39,800 g; 20 min @ 4°) and the final pellet was resuspended in HEPES buffer to give a tissue concentration of 2 mg.ml^-1 (original wet weight).
The membranes ([…]) were incubated for 150 min at 21±3° in a final volume of 0.5 ml with HEPES buffer containing [^125 I]-CCK8S (0.05 ml; 200 pM NEN 2200 Ci.mmol^-1) and competing compound. Total and non-specific binding of [^125 I]-CCK8S were defined using 0.05 ml of buffer and 0.05 ml of […] L-365,260, respectively. The assay was terminated by rapid filtration through pre-soaked Whatman GF/B filters using a Brandell Cell harvester. The filters were washed (3×3 ml) with ice-cold 50 mM Tris-HCl (pH7.4 @ 4° C.) and bound radioactivity determined by counting (1 min.) in a gamma-counter.

CCKA = biological target: T2, CCKA (Cavia porcellus, UniProt Q63931); experiment: CCKA radioligand binding assay in guinea-pig pancreas membranes ([125I]-CCK8(S)); settings: PD134,308 present, 150 minutes at 21±3°; for Ki: read-out: CCKA pKi (converted)
T2 construct: The pancreatata were homogenised in 40 ml ice-cold HEPES buffer using a polytron; from tissue; host or cells: pancreas membranes of male Dunkin Hartley guinea-pigs
T2 sequence (Q63931 1-430): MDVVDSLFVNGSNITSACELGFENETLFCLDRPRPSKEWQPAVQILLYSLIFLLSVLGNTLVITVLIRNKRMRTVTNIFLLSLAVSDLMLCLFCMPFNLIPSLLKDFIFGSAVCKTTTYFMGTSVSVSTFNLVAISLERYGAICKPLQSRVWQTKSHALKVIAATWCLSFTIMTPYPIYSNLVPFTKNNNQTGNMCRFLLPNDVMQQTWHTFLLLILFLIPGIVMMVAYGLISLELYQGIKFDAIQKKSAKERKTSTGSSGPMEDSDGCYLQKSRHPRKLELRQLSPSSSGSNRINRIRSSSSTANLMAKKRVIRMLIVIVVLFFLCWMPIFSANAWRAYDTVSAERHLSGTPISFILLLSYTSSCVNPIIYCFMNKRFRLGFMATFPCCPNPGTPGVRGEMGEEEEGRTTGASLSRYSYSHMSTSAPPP
Protocol: The compounds of the examples were also tested in a CCKA as follows:
The pancreatata were removed from male guinea-pigs (200-300 g; Dunkin Hartley) and placed in ice-cold HEPES buffer (pH 7.2 @ 21 ±3). The pancreatata were homogenised in 40 ml ice-cold HEPES buffer using a polytron (Brinkmann, PT10, setting 10) 4×1 second. The homogenate was centrifuged at 39,800 g for 15 min at 4°. The supernatant was discarded and the pellet re-suspended using a Teflon-in-glass homogeniser in 20 volumes of fresh buffer and re-centrifuged as above.
The final pellet was re-suspended using a Teflon-in-glass homogeniser to a tissue concentration of 1 mg.ml^-1 (original wet weight), and filtered through 500 μm pore-size Nytex mesh.
The membranes (400 μl; containing 0.375 μM PD134,308) are incubated for 150 minutes at 21±3° in a final volume of 0.5 ml with HEPES buffer containing [^125 I]-CCK8 (S) (50 μl; […]) and competing compound. Total and non-specific binding of [^125 I]-CCK8 (S) are defined using 50 μl of buffer and 50 μl of 100 nM L-364,718 respectively. The assay is terminated by rapid filtration through pre-soaked Whatman GF/B filters using a Brandell Cell Harvester. The filters were washed (3×3 ml) with ice-cold 50 mM Tris HCl (pH 7.4 at 4°) and bound radioactivity is determined by counting (1 min) in a gamma counter.

Molecule | Ki (CCKB receptor) [nM] | Ki (CCKA) [nM] | CCKB pKi (CCKB receptor) | CCKA pKi (CCKA)
O=C(NCC12CC3CC(CC(C3)C1)C2)c1cc2cc[nH]c2cc1C(=O)N[C@@H](Cc1ccccc1)C(=O)Nc1cccc(-c2nn[nH]n2)c1 [Example 101, 6-(1S-(3-tetrazolylphenylaminocarbonyl)-2-phenylethylaminocarbonyl)-5-(1-adamantanemethylaminocarbonyl)-indole] | 39.8 | 251 |  | 
O=C(O)c1cccc2cccc(C(=O)NCC34CC5CC(CC(C5)C3)C4)c12 [Example 20, 1-(1-adamantanemethylaminocarbonyl)-8-naphthoic acid] | 10000 | 10000 |  | 
5-(1S-(3,5-diethoxycarbonylphenylaminocarbonyl)-2-phenylethylaminocarbonyl)-6-(1-adamantanemethylaminocarbonyl)-indole and regioisomer with substituents at positions 5 and 6 reversed [Example 66] |  |  | 5.8 | 5.0
O=C(NCC12CC3CC(CC(C3)C1)C2)c1cc2nc[nH]c2cc1C(=O)N[C@@H](Cc1ccccc1F)C(=O)Nc1cc(-c2nn[nH]n2)cc(-c2nn[nH]n2)c1 [Example 84, 5-(1S-(3,5-ditetrazolylphenylaminocarbonyl)-2-(2-fluorophenyl)ethylaminocarbonyl)-6-(1-adamantanemethylaminocarbonyl)-benzimidazole] | 2.51 | 631 |  | 
O=C(NCC12CC3CC(CC(C3)C1)C2)c1cc(Cl)c(Cl)cc1C(=O)N1CCC[C@@H]1C(=O)O [Example 19, (2R-carboxypyrrolidino-carbonyl)-2-(1-adamantanemethylaminocarbonylmethyl)-4,5-dichlorobenzene] | 2000 | 5010 |  | 
O=C(NCC12CC3CC(CC(C3)C1)C2)c1cc2[nH]ccc2cc1C(=O)N[C@@H](Cc1ccccc1)C(=O)Nc1cccc(S(=O)(=O)NC(=O)C(F)(F)F)c1 [Example 99, 5-(1S-(3-trifluoroacetylaminosulphonylphenylaminocarbonyl)-2-phenylethylaminocarbonyl)-6-(1-adamantanemethylaminocarbonyl)-indole] |  |  | 8.4 | 5.4
COC(=O)[C@@H]1CCCN1C(=O)c1cc2ccccc2cc1C(=O)NCC12CC3CC(CC(C3)C1)C2 [Example 6, 2-(2S-methoxycarbonylpyrrolidino-carbonyl)-3-(1-adamantanemethylaminocarbonyl)-naphthalene] | 1000 | 2510 |  | 

Continued, values first:

Ki (CCKB receptor) [nM] | Ki (CCKA) [nM] | CCKB pKi (CCKB receptor) | CCKA pKi (CCKA) | Molecule
200 | 7940 |  |  | O=C(O)c1cc(NC(=O)[C@@H]2Cc3ccccc3CN2C(=O)c2cc3[nH]cnc3cc2C(=O)NCC23CC4CC(CC(C4)C2)C3)cc(C(=O)O)c1 [Example 129, 5-(3S-(3,5-dicarboxyphenylaminocarbonyl)-1,2,3,4-tetrahydroisoquinolino-2-carbonyl)-6-(1-adamantanemethylaminocarbonyl)-benzimidazole]
 |  | 6.2 | 5.6 | O=C(NCC12CC3CC(CC(C3)C1)C2)c1cc2nc[nH]c2cc1C(=O)N[C@@H](Cc1ccccc1)C(=O)Nc1cc(CO)cc(CO)c1 [Example 119, 5-(1S-(3,5-dihydroxymethylphenylaminocarbonyl)-2-phenylethylaminocarbonyl)-6-(1-adamantanemethylaminocarbonyl)-benzimidazole]
1000 | 3160 |  |  | CCCCc1nc2cc(C(=O)NCC34CC5CC(CC(C5)C3)C4)c(C(=O)N[C@@H](Cc3ccccc3)C(=O)Nc3cc(C(=O)O)cc(C(=O)O)c3)cc2[nH]1 [Example 114, 5-(1S-(3,5-dicarboxyphenylaminocarbonyl)-2-phenylethylaminocarbonyl)-6-(1-adamantanemethylaminocarbonyl)-2-n-butylbenzimidazole]
 |  | 7.4 | 5.9 | O=C(NCC12CC3CC(CC(C3)C1)C2)c1cc2[nH]ccc2cc1C(=O)N[C@@H](Cc1ccccc1)C(=O)Nc1cccc(NS(=O)(=O)C(F)(F)F)c1 [Example 102, 5-(1S-(3-trifluoromethylsulphonylaminophenylaminocarbonyl)-2-phenylethylaminocarbonyl)-6-(1-adamantanemethylaminocarbonyl)-indole]
